According to US20240058302A1, “METHOD OF INDUCTION OF TUMOR ASSOCIATED ANTIGENS WITH BRYOSTATIN” (BryoLogyx Inc., priority 2019, published 2024):

Key:
CD22 [1] = test: Flow cytometry of surface protein expression, REH cell line stimulated with bryostatin-1; type: cell-based, human; settings: REH (ALL) cells; bryostatin-1 0.001-1 nM, 24 or 72 hours; FIG. 1A
Description: (§1) Bryostatin-1 has been examined in numerous tumor cell lines representing various hematological tumor types. Surface protein target expression was examined by flow cytometry with human cell lines stimulated with different concentrations of bryostatin-1. Human cell lines representative of different hematological disease indications of leukemia/lymphoma (Toledo, REH, DB), multiple myeloma (NCI-H929, U266B1, RPMI8226), and acute myeloid leukemia (Kasumi-1, AML-193, THP1) were used as target cell lines. Each cell line was treated with bryostatin-1 at 0.001, 0.01, 0.1, or 1 nM for either 24 hours or 72 hours in duplicate prior to measuring the surface molecule expression, quantitatively, of the following protein antigens by flow cytometry: CD19, CD20, CD22, CD33, CD37, CD38, CD123, CD269 (BCMA), and isotype control. Bryostatin-1 caused an upregulation of some antigens and not others.

CD123 = test: Flow cytometry of surface protein expression, AML193 cell line stimulated with bryostatin-1; type: cell-based, human; settings: AML193 (AML) cells; bryostatin-1 0.001-1 nM, 24 or 72 hours; FIG. 1B
Description: as §1

CD5 = test: Surface antigen expression on primary B cells from healthy donors, MM or CLL patients; type: cell-based, human; settings: 24 h exposure
Description: (§2) The ability of bryostatin-1 at multiple concentrations to modulate the surface expression of multiple antigens (CD5, CD19, CD20, CD22, CD37, CD200/OX2 and CD269/BCMA) at two time points on primary B cells from healthy donors (2 donors) or patients with multiple myeloma (2 patients, MM) or chronic lymphocytic leukemia (4 patients, CLL) was investigated.

CD19 = test: as above; type: cell-based, human; settings: 72 h exposure
Description: as §2

CD22 [2] = test: as above; type: cell-based, human
Description: as §2

[3] = tested on: tumor cells derived from relapsed, low-expressing TAA patients; test: PDX model with CD22-directed CAR-T and bryostatin-1; type: in vivo; settings: bryostatin-1 administered on Day 45 after CD22-directed CAR-T cells on Day 42
CD269 (BCMA) = test: Flow cytometry of surface protein expression, NCI-H929 cell line stimulated with bryostatin-1; type: cell-based, human; settings: NCI-H929 (MM) cells; bryostatin-1 0.001-1 nM, 24 or 72 hours; FIG. 1C
Description: as §1

[4] = primary B cells of CLL patients
[5] = primary B cells of healthy donors

CCC/C=C/C=C/C(=O)O[C@H]1/C(=C/C(=O)OC)C[C@H]2C[C@H]([C@@H](C)O)OC(=O)C[C@H](O)C[C@@H]3C[C@H](OC(C)=O)C(C)(C)[C@](O)(C[C@@H]4C/C(=C/C(=O)OC)C[C@H](/C=C/C(C)(C)[C@]1(O)O2)O4)O3 [bryostatin-1, Bryostatin-1]
increases: CD5 expression (CD5; primary B cells of MM patients) | CD19 expression (CD19; [4]) | CD19 expression (CD19; [5])
not: CD5 expression (CD5; [4]) | CD5 expression (CD5; [5]) | CD19 expression (CD19; primary B cells of MM patients) | CD22 expression (CD22 [2]; primary B cells of MM patients)
upregulated: CD22 cell surface expression (CD22 [1]) | CD123 cell surface expression (CD123) | CD22 expression (CD22 [2]; [4]) | CD22 expression (CD22 [2]; [5]) | CD269 (BCMA) cell surface expression (CD269 (BCMA))
induced the tumors to respond: Tumor response [3]
